Measurements as given in patent US11110080B2, “Small molecule inhibitors of bacterial efflux pumps and methods of using same” (The Regents of the University of Colorado, a body Corporate, priority 2017, dated 2021).
Entries after “also recorded” stand apart in the source; their conditions may differ.

How the values were obtained:
S.Tm efflux pumps = assay: Nile Red efflux assay; format: cell-based, Salmonella enterica serovar Typhimurium; conditions: for glucose-activated efflux of Nile Red: 100 μM; for Nile Red efflux after washout of compound: 15 minutes with compound, washed, then glucose; for Nile Red fluorescence in the absence of glucose (basal loss): no glucose
Excerpt: Because Hoechst and other dyes commonly used to assess efflux bind cellular components, direct measurement of efflux is not possible using these methods; instead, the Hoechst assay measures dye accumulation, the net result of entry and efflux. Further, the slow off-rate of Hoechst entails that efflux pumps have no effect on dye already bound to DNA. As a result, compounds which increase Hoechst accumulation may actually enhance dye entry by altering porins or disrupting the membrane. To more specifically measure efflux pump activity, a second technique was employed using the dye Nile Red, a lipophilic membrane-partitioning dye which fluoresces in nonpolar environments. Because Nile Red is not known to bind cellular components, to directly observe efflux cells were preloaded with the dye in the absence of glucose to reduce efflux pump activity (FIG. 7A). Upon addition of glucose, bacteria rapidly effluxed Nile Red and fluorescence returned to baseline levels (FIG. 7B, top panel). […] The initial measured fluorescence was lower for DMSO-treated cells (upper dotted line) than for PAβN-treated cells due to glucose-independent efflux during sample preparation (FIG. 8A). Next, it was determined whether efflux pump activity is restored after removal of PAβN. Bacteria were incubated with compound for 15 minutes, pelleted and resuspended in buffer lacking compound, and then stimulated with glucose (FIGS. 7C, 7E).
Nile Red assays were adapted from an established protocol. Briefly, overnight Salmonella cultures were grown in Mueller-Hinton cation-adjusted broth (Sigma), washed, and resuspended at an OD600 of 2.0. Cells were incubated in 10 μM Nile Red for 3 hours at 37° C. with aeration, then moved to room temperature for 1 hour. After pelleting at 2000× g, dye-loaded cells were aliquoted and combined with compound at the indicated concentrations. Two hundred microliters was loaded into 96-well black walled plates (Greiner) and read using a Varioskan Flash Multimode Reader with 540 nm excitation and 625 nm emission filters. We observed that during loading into plates (˜20 minutes), bacteria were able to efflux Nile Red even in the absence of glucose (FIG. 8A). To activate efflux, glucose was added to a final concentration of 2 mM. In some experiments, bacteria were treated with drug for 15 minutes, pelleted at 16,000×g, resuspended in fresh buffer, and stimulated with 2 mM glucose. All wash and incubation steps were performed in PBS with 1 mM MgCl2; incubations were performed in glass tubes to reduce adhesion of Nile Red.

[1] = system: S.Tm infection of C57BL/6 mice; assay: Mouse infection with S.Tm, tetracycline and EPM35 treatment
Description: Finally, whether EPM35 increased sensitivity of 510801 and wild-type S.Tm to tetracycline in vivo was tested. 7-week-old C57BL/6 mice were intraperitoneally infected with 1×10^4 bacteria. At 30 minutes and 24 hours post-infection, 25 mg/kg tetracycline and 50 mg/kg EPM35 was injected. […] Thus, the experiment was ended at 30 hours post-infection; the spleen and liver were harvested and plated to determine bacterial CFU.
These studies were carried out in strict accordance with the recommendations in the Guide for the Care and Use of Laboratory Animals of the National Institutes of Health, and all protocols were approved by the University of Colorado Institutional Committees for Biosafety and for Animal Care and Use. Bacteria were grown overnight in LB, then diluted in PBS. Seven week old C57/B16 female mice were intraperitoneally injected with 1×10^4S.Tm in 100 μL. Thirty minutes later, mice received two intraperitoneal injections: 25 mg/kg tetracycline in 150 μL PBS or PBS alone, and 50 mg/kg EPM35 in 100 μL DMSO or DMSO alone. Drug injections were repeated at 24 hours post-infection. At 30 hours post-infection, mice were humanely euthanized using carbon dioxide asphyxiation followed by cervical dislocation. Spleens and livers were harvested, homogenized, diluted in PBS, and plated to enumerate S.Tm CFUs.

HepG2 human liver cells = assay: LDH cytotoxicity assay; format: cell-based; conditions: 16 hours
Description: Cytoxocity was determined using the Pierce Lactate Dehydrogenase (LDH) Cytoxicity Assay. HepG2 liver cells were plated at 5×10^4 in 96 well tissue culture plates and allowed to settle overnight. Cells were treated with a 2-fold dilutions of each compound for 16 hours. Fifty microliters of conditioned media was mixed with the LDH assay reagent, incubated for 30 minutes, and absorbance was read at 490 and 680 nm. Curve fitting to determine CC50s was performed using GraphPad Prism; the CC50 is defined as 50% of the maximum LDH release as determined by lysed macrophages. There was no spontaneous LDH release or LDH present in the media.

[2] = Log D, solubility and predicted bioavailability; format: physicochemical; conditions: aqueous

| Structure (SMILES) | glucose-activated efflux of Nile Red (S.Tm efflux pumps) | Nile Red efflux after washout of compound (S.Tm efflux pumps) | Nile Red fluorescence in the absence of glucose (basal loss) (S.Tm efflux pumps) | signs in treated mice ([1]; 50 mg/kg intraperitoneal at 30 minutes and 24 hours post-infection) | bacterial CFU in spleen and liver, co-treatment with tetracycline ([1]; S10801-infected mice, 25 mg/kg tetracycline + 50 mg/kg EPM35) | enhanced decrease of CFU on co-treatment with tetracycline ([1]; mice infected with wild-type bacteria, 25 mg/kg tetracycline + 50 mg/kg EPM35) | toxicity in HepG2 LDH assays (HepG2 human liver cells) | solubility [2] |
| --- | --- | --- | --- | --- | --- | --- | --- | --- |
| OC(COc1ccc(Cl)c(Cl)c1)CN1CCC(Nc2nccc(C(F)(F)F)n2)CC1 (centres unmarked) [EPM35] | fully inhibited efflux | remained unable to efflux | inhibit basal loss of Nile Red | Distress was observed | appeared to further reduce bacterial CFU | not observed |  |  |
| Cc1ccc(Sc2cccc3nc(N)nc(N)c23)cc1 [EPM43] | only partially inhibited efflux | partially effluxed Nile Red after compound washout; also recorded: partially restored Nile Red export | inhibit basal loss of Nile Red |  |  |  | less toxic to HepG2 cells than the other EPMs | poor aqueous solubility |
